Data set [1] is classed as physicochemical. The conditions noted are these: classified from Log P. From the text: As used herein, a “partition coefficient” is defined as the ratio of concentrations of an un-ionized compound between solutions of water and octanol. To measure the partition coefficient of ionizable solutes, the pH of the aqueous phase is adjusted such that the predominant form of the compound is un-ionized. The logarithm of the ratio of the concentrations of the un-ionized solute in the solvents is referred to herein as log P or log K ow.
As noted herein, the octanol-water partition coefficient may be used to identify the cuticular penetration of a particular active ingredient. One factor in the relative speed through which any insecticide acts is the insecticide's ability to cross the insect cuticle. A determining factor for cuticle penetration is Log K ow, also known as Log P. Log K ow (Log P) is the octanol-water partition coefficient for a neutral molecule. Log P is used hereinfurther, but, as noted above, the term is synonymous with Log K ow. As previously noted, the cuticular penetration of any particular active ingredient as against a plant cuticle is not indicative of that same active ingredient's ability to penetrate an insect cuticle.
The cuticular penetration of a compound is classified as “INTERMEDIATE” when the Log P value is between about 2.0 and about 4.0.

The test system of data set [2] is Argentine ant, Linepithema humile. The experiment in a line: Knockdown/mortality of ant workers under continuous exposure on treated glazed tile. An outline of the steps: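 0.5% AI imidacloprid in acetone, alone or with 0.1, 1.0 or 5.0% additive (benzenepropanoic acid, oleic acid, methyl oleate, methyl linoleate, methyl palmitate or BHA), 1 ml dried overnight on glazed tile (~161 cm^2). Ten workers confined under continuous exposure, water from 3 h; knockdown/mortality scored at intervals and 24 h; ≥3 replicates.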

In data set [3] the test system is Culex quinquefasciatus mosquito. The experiment in a line: USDA Petri Dish Method, 3 min exposure to treated glazed tile (twenty 4-6 day old females). It counts as in vivo. The conditions noted are these: fipronil 0.01% AI with or without adjuvant. How it is done:
MATERIALS AND METHODS: Solutions of resmethrin at 1 and 0.5% AI were prepared with and without adjuvant in acetone. […] USDA Petri Dish Method was used as initial screening protocol. Twenty, 4-6 day old female Culex quinquefasciatus mosquitoes were exposed to each treatment for 3 minutes and then moved to a clean untreated white paper index card. Treatments were replicated a minimum of three times. Mosquito knockdown was evaluated at 3 minute intervals for the first 15 minutes and then at 5 minute intervals for the remainder of an hour. A small cotton ball soaked in sucrose solution was added on the screen top of the petri-dish as a drinking source after the 2 hour evaluation. Mortality was evaluated at 24 hours after exposure.
Treatments were allowed to dry overnight. USDA Petri Dish Method was used as initial screening protocol. Twenty, 4-6 day old female Culex mosquitoes were exposed to each treatment for 3 minutes and then moved to a clean untreated white paper index card. Treatments were replicated a minimum of three times. Mosquito knockdown was evaluated at various intervals through 3 hours after exposure. A small cotton ball soaked in sucrose solution was added on the screen top of the petri-dish as a drinking source. Mortality was evaluated at 24 hours after exposure.
Treatments were allowed to dry overnight. USDA Petri Dish Method was used as initial screening protocol. Twenty, 4-6 day old female Culex quinquefasciatus mosquitoes were exposed to each treatment for 3 minutes and then moved to a clean untreated white paper index card. Treatments were replicated a minimum of three times. Mosquito knockdown was evaluated at various intervals through 2 hours after exposure. A small cotton ball soaked in sucrose solution was then added on the screen top of the petri-dish as a drinking source. Mortality was evaluated at 24 hours after exposure.
Treatments were allowed to dry overnight. USDA Petri Dish Method was used as initial screening protocol. Twenty, 4-6 day old female Culex quinquefasciatus mosquitoes were exposed to each treatment for 3 minutes and then moved to a clean untreated white paper index card. Treatments were replicated a minimum of three times. Mosquito knockdown was evaluated at various hourly intervals. A small cotton ball soaked in sucrose solution was added on the screen top of the petri-dish as a drinking source after 2 hours. Mortality was evaluated at 24 hours after exposure.

Data set [4] has as its system Odorous House ant, Tapinoma sessile. The experiment in a line: Knockdown/mortality of ant workers under continuous exposure on treated glazed tile. It counts as in vivo. To be noted: fipronil 0.001% (FIG. 45); ethiprole 0.01% (FIG. 53); with or without adjuvant. From the text: Actual coverage was about 5″×5″ (or 161 cm2) for easy handling. Treatments were allowed to dry overnight. […] Treatments were replicated minimum three times.
(§1) Treatments were allowed to dry overnight. […] Treatments were replicated minimum three times.
(§2) Treatments were allowed to dry overnight. […] Treatments were replicated a minimum of three times.
Treatments were allowed to dry overnight. […] Treatments were replicated minimum of three times. […] The results are shown in FIG. 84 (No adjuvant alone treatment was performed).

In data set [5] the test system is Red Imported Fire ant (RIFA), Solenopsis invicta. The description is as above. It is filed as in vivo. The conditions noted are these: fipronil 0.01% AI with or without adjuvant.
Excerpt: as §1, §2

For data set [6], the system named is susceptible/normal German cockroach (Monheim strain), Blattella germanica. The experiment in a line: Knockdown/mortality of male cockroaches under continuous exposure on treated glazed tile. It is filed as in vivo. The conditions noted are these: fipronil 0.001% (FIG. 48); ethiprole 0.01% (FIG. 55); with or without adjuvant. How it is done:
Treatments were allowed to dry overnight. […] Treatments were replicated a minimum of three times. […]
Treatments were allowed to dry overnight. […] Treatments were replicated a minimum of three times. Cockroach knockdown/mortality was evaluated at 5 minute intervals for the first 60 minutes after exposure and then at 2, 18 and 24 hours.

The conditions of data set [7]: octanol-water partition coefficient (Log K ow), Table 1; cited from earlier work.
For data set [8], the system named is Musca domestica, susceptible strain WHO(N). Description: Topical insecticide application to houseflies. It is filed as in vivo. To be noted: 0.5 μl per fly, % a.i. conc. in acetone, Table 95. The procedure: Male Musca domestica, susceptible strain WHO(N), or other strains were used.
The flies were anaesthetized with CO2, and ten individuals were positioned (on their back) on a filter paper which was on the top of a carbon dioxide emitting device. […]
Afterwards the insects were transferred into a beaker closed by a gauze lid with a water saturated cotton pad on the top.
At regular intervals, mortality was recorded (cumulatively).

The subject of another data set is Aedes aegypti mosquito. Description: USDA Petri Dish Method, 3 min exposure to treated glazed tile. It is filed as in vivo. To be noted: Aedes aegypti, glazed tile, 3 min exposure. An outline of the steps: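 USDA Petri Dish screen: groups of twenty female Aedes aegypti (4-6 days old) held 3 minutes on dried acetone-based treatments (with/without adjuvant), then transferred to untreated card. Replicated three or more times; knockdown followed over time, mortality recorded 24 hours post-exposure with sucrose-soaked cotton available.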

The term Log P denotes a log measure of how a compound divides between an organic and an aqueous phase.

`N#Cc1nn(-c2c(Cl)cc(C(F)(F)F)cc2Cl)c(N)c1[S+]([O-])C(F)(F)F` (single isomer, unassigned) [fipronil, reference compound]: the “Likelihood of Direct Insect Cuticular Penetration” value (from here on “Likelihood”) in [1] was “Fast (classified as “FAST” when it has a Log P value of about >4.0)”. In addition, the “time at which 100% mortality was seen” value in data set [2] (fipronil 0.001% with or without adjuvant (FIG. 43)) is reported as “around 25 hours”. Further, the “mortality at 24 hours (FIG. 44)” value in data set [3] was “around 50%”. The “time at which 100% mortality was observed” value in [4] was 25 h. The “time to a relatively high percentage of mortality (around 80%)” value in data set [5] was “around 20 hours”. For the same molecule, the “mortality at 25 hours” value in [6] is listed as “around 40%”. Moreover, the “Log P” value in data set [7] is on record as 4.0.

For the molecule `CC1(C)[C@H](C(=O)O[C@H](C#N)c2cccc(Oc3ccccc3)c2)[C@@H]1C=C(Br)Br` [0.00064% DTM], the “% Mortality after” value in data set [8] (15′) was found to be 100%; in data set [8] (30′), 100%; in data set [8] (1 h), 100%; in [8] (2 h), 100%; in [8] (4 h), 100%; in data set [8] (1 d), 80%.

For the molecule `CC1(C)CNC(=NN=C(/C=C/c2ccc(C(F)(F)F)cc2)/C=C/c2ccc(C(F)(F)F)cc2)NC1` [hydramethylnon], the “Likelihood” value in data set [1] is “Intermediate (classified as “INTERMEDIATE” when the Log P value is between about 2.0 and about 4.0)”. The “Log P” value in [7] is listed as 2.3.

With `COC(=O)N(C(=O)N1CO[C@@]2(C(=O)OC)Cc3cc(Cl)ccc3C2=N1)c1ccc(OC(F)(F)F)cc1` [indoxacarb], the “Likelihood” value in data set [1] was “Fast (classified as “FAST” when it has a Log P value of about >4.0)”. Besides, the lipophilicity (Log P) in data set [7] is given as 4.6.

Regarding `CCOC(=O)CC(SP(=S)(OC)OC)C(=O)OCC` (stereo not shown) [malathion], the “Likelihood” value in data set [1] was “Intermediate (classified as “INTERMEDIATE” when the Log P value is between about 2.0 and about 4.0)”. For the same molecule, in data set [7], the “Log P” value is reported as 2.7.

Regarding `O=C(NC(=O)c1c(F)cccc1F)Nc1cc(Cl)c(OC(F)(F)C(F)C(F)(F)F)c(Cl)c1F` (stereo not shown) [noviflumuron], in [1], the “Likelihood” value is “Fast (classified as “FAST” when it has a Log P value of about >4.0)”. Moreover, the “Log P” value in [7] is 4.9.

As to `CC(COc1ccc(Oc2ccccc2)cc1)Oc1ccccn1` (stereo not shown) [pyriproxifen], the “Likelihood” value in [1] was “Fast (classified as “FAST” when it has a Log P value of about >4.0)”. Further, in data set [7], the “Log P” value is 5.4.

On to `CC(C)=CC1C(C(=O)OCc2coc(Cc3ccccc3)c2)C1(C)C` (stereo not shown) [resmethrin], for which the “Likelihood” value in data set [1] is given as “Fast (classified as “FAST” when it has a Log P value of about >4.0)”. In the data set on Aedes aegypti mosquito, the “toxicity / efficacy of the substance alone (summary in words)” value is “did not provide mosquito knockdown”. Besides, the “Log P” value in [7] was 5.4.

As for `CCC(C)(C)C(=O)OC1=C(c2ccc(Cl)cc2Cl)C(=O)OC12CCCCC2` [spirodiclofen], the “Likelihood” value in data set [1] is given as “Fast (classified as “FAST” when it has a Log P value of about >4.0)”. The log partition coefficient (Log P) in [7] is given as 5.8.

As for `CCNS(=O)(=O)C(F)(F)C(F)(F)C(F)(F)C(F)(F)C(F)(F)C(F)(F)C(F)(F)C(F)(F)F` [sulfluramid], the “Likelihood” value in [1] is on record as “Fast (classified as “FAST” when it has a Log P value of about >4.0)”. Also, the “Log P” value in data set [7] is over 6.8.

Turning to `CCc1nn(C)c(C(=O)NCc2ccc(C(C)(C)C)cc2)c1Cl` [tebufenpyrad], in data set [1], the “Likelihood” value is recorded as “Fast (classified as “FAST” when it has a Log P value of about >4.0)”. For the same molecule, the “Log P” value in [7] was 4.9.

Regarding `N#C/N=C1\SCCN1Cc1ccc(Cl)nc1` [thiacloprid], the “Likelihood” value in data set [1] was “Slow (classified as “SLOW” when the compound has a Log P value of about <2.0)”. Besides, in data set [7], the “Log P” value is given as 1.3.

As for `CN1COCN(Cc2cnc(Cl)s2)/C1=N\[N+](=O)[O-]` [thiamethoxam], the “Likelihood” value in data set [1] is “Slow (classified as “SLOW” when the compound has a Log P value of about <2.0)”. Besides, the log partition coefficient (Log P) in [7] is 0.1.

On to `CS/C(C)=N\OC(=O)N(C)SN(C)C(=O)O/N=C(\C)SC` [thiodicarb], for which the “Likelihood” value in data set [1] is “Slow (classified as “SLOW” when the compound has a Log P value of about <2.0)”. Besides, the “Log P” value in [7] is listed as 1.6.

Consider `O=C(NC(=O)c1ccccc1Cl)Nc1ccc(OC(F)(F)F)cc1` [triflumuron], for which the “Likelihood” value in [1] is reported as “Fast (classified as “FAST” when it has a Log P value of about >4.0)”. Also, in data set [7], the “Log P” value was 4.9.

`CC1(C)C(C=C(Cl)Cl)C1C(=O)OC(C#N)c1ccc(F)c(Oc2ccccc2)c1` (stereo not drawn) [β-cyfluthrin, reference compound]: the “Likelihood” value in data set [1] is “Fast (classified as “FAST” when it has a Log P value of about >4.0)”. Further, the “toxicity / efficacy of the substance alone (summary in words)” value is listed as “extremely effective at killing the ants” in data set [2] (Argentine ant, treated glazed tile) and 100% knockdown, or nearly 100% knockdown even in the absence of the adjuvant in the data set with Aedes aegypti mosquito. For the same molecule, in [7], the “Log P” value is reported as 5.9.

Turning to abamectin, the “Likelihood” value in [1] is listed as “Fast (classified as “FAST” when it has a Log P value of about >4.0)”. The “Log P” value in data set [7] is listed as 4.4.

Regarding pyrethrin, the “Likelihood” value in [1] is listed as “Fast (classified as “FAST” when it has a Log P value of about >4.0)”. Also, the “Log P” value in data set [7] is on record as 4.3.

As to spinosad, the “Likelihood” value in [1] is on record as “Intermediate-Fast”. Also, the log partition coefficient (Log P) in data set [7] is on record as 2.8-5.2.

Take spiromesifen: the “Likelihood” value in data set [1] is given as “Fast (classified as “FAST” when it has a Log P value of about >4.0)”. The lipophilicity (Log P) in data set [7] is listed as 4.6.

These data come from patent US9028856B2, “Synergistic pesticide compositions” (priority 2008, dated 2015).
